The source of these data is patent US20090163508A1, “AMIDE COMPOUND” (TAKEDA PHARMACEUTICAL COMPANY LIMITED, priority 2007, published 2009).

Each structure is given as a SMILES string.

The subject of this assay is mouse. Put plainly: Analgesic effect in acetic acid writhing test on mouse. The format is in vivo. To be noted: po, 20 min, 10 mg/kg orally, 60 minutes before 0.6% acetic acid i.p., count over 20 minutes relative to the reference group. As for the experimental part:
A suspension of the test compound (10 mg/kg) was orally administered to a mouse. 60 minutes after the administration, a 0.6% aqueous acetic acid solution was intraperitoneally administered in an amount of 10 mL/kg. The mouse was accommodated in a special cage from immediately after the administration until 20 minutes after, and the writhing response was counted. The mean count number was compared relative to the reference group, so as to examine the difference (student's t-test), and the analgesic effect was evaluated.
For orientation: In writhing tests, fewer writhes than in controls are read as antinociception.
With `Cc1noc(NC(=O)N2CCN(c3ccnc(-c4cccc(F)c4F)n3)CC2)c1C` [Example 5, 4-[2-(2,3-difluorophenyl)pyrimidin-4-yl]-N-(3,4-dimethylisoxazol-5-yl)piperazine-1-carboxamide], the response vs control in vivo at 10 mg/kg came out at 42.2%. Under `Cc1noc(NC(=O)N2CCN(c3cncc(-c4ccc(F)cc4F)n3)CC2)c1C` [Example 14, 4-[6-(2,4-difluorophenyl)pyrazin-2-yl]-N-(3,4-dimethylisoxazol-5-yl)piperazine-1-carboxamide] stands 67.2%; under `O=C(Nc1cccnc1)N1CCN(c2nccc(-c3ccc(F)cc3F)n2)CC1` [Example 15, 4-[4-(2,4-difluorophenyl)pyrimidin-2-yl]-N-pyridin-3-ylpiperazine-1-carboxamide], 66.7%; under `O=C(Nc1cccnn1)N1CCN(c2nccc(-c3ccc(F)cc3F)n2)CC1` [Example 17, 4-[4-(2,4-difluorophenyl)pyrimidin-2-yl]-N-pyridazin-3-ylpiperazine-1-carboxamide], 56.9%. In turn, `Cc1noc(NC(=O)N2CCN(c3cc(-c4ccc(F)cc4F)ncn3)CC2)c1C` [Example 19, 4-[6-(2,4-difluorophenyl)pyrimidin-4-yl]-N-(3,4-dimethylisoxazol-5-yl)piperazine-1-carboxamide] showed a response vs control in vivo at 10 mg/kg of 51.9%. As for `O=C(Nc1cccnc1)N1CCN(c2nccc(-c3ccccc3)n2)CC1` [Example 77, 4-(4-phenylpyrimidin-2-yl)-N-pyridin-3-ylpiperazine-1-carboxamide], the figure is 46.8%; as for `O=C(Nc1cccnn1)N1CCN(c2nccc(-c3ccccc3)n2)CC1` [Example 79, 4-(4-phenylpyrimidin-2-yl)-N-pyridazin-3-ylpiperazine-1-carboxamide], 38.9%; as for `O=C(Nc1cccnn1)N1CCN(c2nccc(-c3ccc(F)c(F)c3)n2)CC1` [Example 110, 4-[4-(3,4-difluorophenyl)pyrimidin-2-yl]-N-pyridazin-3-ylpiperazin-1-carboxamide], 34.7%.
